What all share (assay type): cell-based
Test [1] addresses T1, Human 5-HT2C Receptor (Homo sapiens, UniProt P28335).
T1 construct: host or cells: CHO-K1
T1 sequence (P28335 33-458): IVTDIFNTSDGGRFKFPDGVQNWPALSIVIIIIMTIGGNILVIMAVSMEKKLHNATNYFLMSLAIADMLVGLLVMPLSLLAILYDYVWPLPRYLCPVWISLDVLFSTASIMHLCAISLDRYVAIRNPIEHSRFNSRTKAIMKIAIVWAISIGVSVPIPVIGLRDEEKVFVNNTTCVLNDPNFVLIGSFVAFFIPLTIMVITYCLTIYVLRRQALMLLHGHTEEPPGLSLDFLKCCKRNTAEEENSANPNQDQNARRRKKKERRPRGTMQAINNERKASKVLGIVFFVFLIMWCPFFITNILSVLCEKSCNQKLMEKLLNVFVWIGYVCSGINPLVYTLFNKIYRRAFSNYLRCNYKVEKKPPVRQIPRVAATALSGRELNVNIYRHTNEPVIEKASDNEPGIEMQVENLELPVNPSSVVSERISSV
Briefly: Serotonin receptor calcium (Ca2+) assay (Multispan, FLIPR). The settings on record: 5-HT 2c receptor; reference 10 μM serotonin; FIG. 3. As for the experimental part:
(§1) Compounds 018 and 019 were assayed using a serotonin (2a, 2b and 2c receptors) calcium (Ca^2+) assay, provided by Multispan. The reference used was 10 μM serotonin to calculate the percentage relative response in relative light units (RLU). The results can be seen in FIG. 3. Both compounds have some activity against the 2a and 2c receptors.
(§2) FLIPR calcium 6 assay explorer kit—VWR—cat. No. MLDVR8190
(§3) MULTISCREEN™ CHO-K1 Cell Line Stably Expressing Human 5-HT2C Receptor, Catalog DC1326-1

The target in test [2] is T1, Human 5-HT2C Receptor. Briefly: Serotonin receptor inositol phosphate 1 (IP1) assay (Multispan). The settings on record: 5-HT 2c receptor; reference 1 μM serotonin; FIG. 2. The protocol:
(§4) Compounds 018 and 019 were assayed using a serotonin (2a, 2b and 2c receptors) inositol phosphate 1 (IP1) assay, provided by Multispan. The reference used was 1 μM serotonin to calculate the percentage relative response. The results can be seen in FIG. 2. Both compounds appear to some activity against all three target receptors in this assay.
(§5) IP-One Gq kit—cisbio—cat. No. 62IPAPEB
as §3

The target of test [3] is T2, Human 5-HT2A Receptor (Homo sapiens, UniProt P28223).
T2 construct: host or cells: CHO-K1
Briefly: Serotonin receptor calcium (Ca2+) assay (Multispan, FLIPR). The settings on record: 5-HT 2a receptor; reference 10 μM serotonin; FIG. 3. As for the experimental part: as §1, §2
(§6) MULTISCREEN™ CHO-K1 Cell Line Stably Expressing Human 5-HT2A Receptor, Catalog DC1324-1

The target in the next test is T3, HTR2A (Homo sapiens, UniProt P28223).
T3 construct: host or cells: U2OS
Briefly: Serotonin receptor B-arrestin assay (DiscoverX PathHunter). The settings on record: 5-HT 2a receptor; reference 10 μM serotonin; FIG. 4. The protocol: (§7) Compounds 018 and 019 were assayed using a serotonin (1a, 1b, 2a and 2c receptors) B-arrestin assay, provided by DiscoverX. The reference used was 10 μM serotonin to calculate the percentage relative response. The results can be seen in FIG. 4.
(§8) For the B-arrestin assays the cells came with the kits apart from the 2b receptor assay (Valiscreen serotonin 5HT-26 (human) cell line—ES-314-C, Perkin Elmer).

The next test has as its target T4, HTR1B (Homo sapiens, UniProt P28222).
T4 construct: host or cells: U2OS
The test is described as above. The settings on record: 5-HT 1b receptor; reference 10 μM serotonin; FIG. 4. The protocol:
as §7, §8

In a further test the target is T5, HTR1A (Homo sapiens, UniProt P08908).
T5 construct: host or cells: CHO-K1
T5 sequence (P08908 1-422): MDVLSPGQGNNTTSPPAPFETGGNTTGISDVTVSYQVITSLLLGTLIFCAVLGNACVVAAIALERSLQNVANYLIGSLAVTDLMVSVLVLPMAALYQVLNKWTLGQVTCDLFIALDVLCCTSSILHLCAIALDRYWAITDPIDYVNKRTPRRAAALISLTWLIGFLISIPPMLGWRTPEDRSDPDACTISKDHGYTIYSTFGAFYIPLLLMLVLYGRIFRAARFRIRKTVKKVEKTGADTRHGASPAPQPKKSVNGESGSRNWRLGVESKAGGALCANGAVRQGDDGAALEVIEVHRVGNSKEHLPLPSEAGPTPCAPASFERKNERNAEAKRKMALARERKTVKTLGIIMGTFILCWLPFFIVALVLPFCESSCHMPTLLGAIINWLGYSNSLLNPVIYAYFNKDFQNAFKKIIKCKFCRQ
The test is described as above. The settings on record: 5-HT 1a receptor; reference 10 μM serotonin; FIG. 4. As for the experimental part: as §7, §8

The next test deals with T6, HTR2C (Homo sapiens, UniProt P28335).
T6 construct: host or cells: U2OS
T6 sequence (P28335 33-458): T1 sequence (P28335 33-458)
The test is described as above. The settings on record: 5-HT 2c receptor; reference 10 μM serotonin; FIG. 4. As for the experimental part:
as §7, §8

The target of test [4] is T2, Human 5-HT2A Receptor. Briefly: Serotonin receptor inositol phosphate 1 (IP1) assay (Multispan). The settings on record: 5-HT 2a receptor; reference 1 μM serotonin; FIG. 2. The protocol: as §4, §5, §6
The target in the next test is T7, Human 5-HT2B Receptor (Homo sapiens, UniProt P41595).
T7 construct: host or cells: CHO-K1
The description is as above. The settings on record: 5-HT 2b receptor; reference 1 μM serotonin; FIG. 2. As for the experimental part: as §4, §5
MULTISCREEN™ CHO-K1 Cell Line Stably Expressing Human 5-HT2B Receptor, Catalog DC1325-1

The target of test [5] is T1, Human 5-HT2C Receptor. Briefly: Serotonin receptor cAMP assay (Multispan, HTRF). The settings on record: 5-HT 2c receptor; reference 10 μM forskolin, serotonin control; FIG. 1. As for the experimental part: (§9) Compounds 018 (above, left) and 019 (above, right) were assayed using a serotonin (1a, 1b, 2a, 2c and 7 receptors) cAMP assay, provided by Multispan. The reference used was 10 μM forskolin (a cAMP activator) to calculate the percentage relative response, serotonin was used as the control. The results can be seen in FIG. 1. Compound 019 was active against in all other receptor assays.
(§10) cAMP Gs dynamic kit—cisbio—cat. No. 62AM4PEC
as §3
(Cyclic AMP is a second messenger, typically raised through Gs and lowered through Gi signalling.)

Test [6] deals with T2, Human 5-HT2A Receptor. Briefly: Serotonin receptor cAMP assay (Multispan, HTRF). The settings on record: 5-HT 2a receptor; reference 10 μM forskolin, serotonin control; FIG. 1. As for the experimental part: as §9, §10, §6
A further test deals with T8, Human 5-HT7 Receptor (Homo sapiens, UniProt P34969).
T8 construct: host or cells: HEK293T
Briefly: Serotonin receptor cAMP assay (Multispan, HTRF). The settings on record: 5-HT 7 receptor; reference 10 μM forskolin, serotonin control; FIG. 1. The protocol:
as §9, §10
MULTISCREEN™ HEK293T Cell Line Stably Expressing Human 5-HT7 Receptor, Catalog DC1334

The target in another test is T9, Human 5-HT1B Receptor (Homo sapiens, UniProt P28222).
T9 construct: host or cells: HEK293T
Briefly: Serotonin receptor cAMP assay (Multispan, HTRF). The settings on record: 5-HT 1b receptor; reference 10 μM forskolin, serotonin control; FIG. 1. As for the experimental part:
as §9, §10
MULTISCREEN™ HEK293T Cell Line Stably Expressing Human 5-HT1B Receptor, Catalog DC1320a
MULTISCREEN™ HEK293T Cell Line Stably Expressing Human 5HT1B Receptor, Catalog DC1320a

For the next test, the target named is T10, Human 5-HT1A Receptor (Homo sapiens, UniProt P08908).
T10 construct: host or cells: HEK293T
T10 sequence (P08908 1-422): T5 sequence (P08908 1-422)
Briefly: Serotonin receptor cAMP assay (Multispan, HTRF). The settings on record: 5-HT 1a receptor; reference 10 μM forskolin, serotonin control; FIG. 1. The protocol: as §9, §10
MULTISCREEN™ HEK293T Cell Line Stably Expressing Human 5-HT1A Receptor, Catalog DC1319a

T2 sequence (P28223 whole entry): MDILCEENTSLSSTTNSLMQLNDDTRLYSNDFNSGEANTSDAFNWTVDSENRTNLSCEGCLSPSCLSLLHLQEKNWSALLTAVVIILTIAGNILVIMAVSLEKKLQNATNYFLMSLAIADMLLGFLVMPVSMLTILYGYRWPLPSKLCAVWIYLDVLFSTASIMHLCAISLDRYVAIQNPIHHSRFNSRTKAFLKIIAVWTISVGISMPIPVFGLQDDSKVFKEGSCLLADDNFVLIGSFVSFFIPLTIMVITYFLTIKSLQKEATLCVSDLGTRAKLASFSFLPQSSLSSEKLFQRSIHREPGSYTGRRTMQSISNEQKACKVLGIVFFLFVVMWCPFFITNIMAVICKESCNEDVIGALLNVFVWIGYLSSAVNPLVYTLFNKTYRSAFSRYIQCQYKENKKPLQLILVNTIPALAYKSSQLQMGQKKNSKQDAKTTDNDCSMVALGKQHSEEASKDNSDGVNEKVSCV
T4 sequence (P28222 whole entry): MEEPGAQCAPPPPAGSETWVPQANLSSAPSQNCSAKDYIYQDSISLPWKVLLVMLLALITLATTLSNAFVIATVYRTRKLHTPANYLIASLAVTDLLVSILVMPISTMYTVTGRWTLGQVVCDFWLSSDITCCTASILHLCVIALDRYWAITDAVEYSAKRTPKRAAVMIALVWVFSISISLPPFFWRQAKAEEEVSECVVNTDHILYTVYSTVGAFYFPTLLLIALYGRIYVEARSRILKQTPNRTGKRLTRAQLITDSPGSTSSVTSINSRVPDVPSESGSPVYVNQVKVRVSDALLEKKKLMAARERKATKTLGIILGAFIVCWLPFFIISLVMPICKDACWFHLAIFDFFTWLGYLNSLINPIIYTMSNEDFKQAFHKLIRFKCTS
T7 sequence (P41595 whole entry): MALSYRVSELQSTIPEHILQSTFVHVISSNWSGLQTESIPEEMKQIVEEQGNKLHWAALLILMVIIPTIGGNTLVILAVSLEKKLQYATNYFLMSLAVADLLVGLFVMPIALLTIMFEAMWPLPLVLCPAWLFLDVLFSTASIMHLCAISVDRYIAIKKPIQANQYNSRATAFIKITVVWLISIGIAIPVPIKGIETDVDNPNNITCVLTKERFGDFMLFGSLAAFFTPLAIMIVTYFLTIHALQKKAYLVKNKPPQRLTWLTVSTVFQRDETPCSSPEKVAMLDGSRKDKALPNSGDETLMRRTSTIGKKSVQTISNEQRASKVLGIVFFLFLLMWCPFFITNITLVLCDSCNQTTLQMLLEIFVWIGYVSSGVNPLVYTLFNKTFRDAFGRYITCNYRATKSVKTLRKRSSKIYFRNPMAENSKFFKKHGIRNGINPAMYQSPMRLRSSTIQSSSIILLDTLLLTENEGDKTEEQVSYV
T3 sequence (P28223 whole entry): as the sequence (P28223 whole entry) above
T8 sequence (P34969 whole entry): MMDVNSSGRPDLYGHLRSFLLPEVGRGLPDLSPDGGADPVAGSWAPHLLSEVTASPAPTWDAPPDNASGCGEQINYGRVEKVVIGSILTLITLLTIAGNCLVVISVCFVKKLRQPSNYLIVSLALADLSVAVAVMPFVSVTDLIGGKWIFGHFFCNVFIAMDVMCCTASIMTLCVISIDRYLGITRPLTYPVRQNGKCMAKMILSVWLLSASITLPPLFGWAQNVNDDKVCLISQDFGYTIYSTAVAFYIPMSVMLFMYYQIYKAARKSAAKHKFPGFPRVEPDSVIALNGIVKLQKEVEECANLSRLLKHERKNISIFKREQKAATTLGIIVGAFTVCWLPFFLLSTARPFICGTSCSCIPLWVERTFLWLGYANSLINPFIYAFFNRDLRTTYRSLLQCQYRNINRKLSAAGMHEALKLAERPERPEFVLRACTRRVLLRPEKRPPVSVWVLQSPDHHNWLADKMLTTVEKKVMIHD
T9 sequence (P28222 whole entry): as the sequence (P28222 whole entry) above

As to `CCCCCN(C(=O)[C@@H]1C=C2c3cccc4[nH]cc(c34)C[C@H]2N(C)C1)C(C)C` [Compound 018, (4R,6R,7R)-6-methyl-4-[pentyl(propan-2-yl)carbamoyl]-6,11-diazatetra-cyclo[7.6.1.0^2,^7.0^12,^16] hexadeca-1(16),2,9,12,14-pentaen-6-ium], the “Calcium (Ca2+) assay activity” value on Human 5-HT2C Receptor [1] and on Human 5-HT2A Receptor [3] was “some activity” in each case. For the same molecule, the IP1 assay activity entry at Human 5-HT2C Receptor [2], at Human 5-HT2A Receptor [4] and on Human 5-HT2B Receptor was “some activity” throughout. The B-arrestin assay activity entry at HTR2A, at HTR1B, at HTR1A and at HTR2C was “some activity” in each case.

As for `CC(C)NC(=O)[C@@H]1C=C2c3cccc4[nH]cc(c34)C[C@H]2N(C)C1` [Compound 019, (4R,6R,7R)-6-methyl-4-[(propan-2-yl)carbamoyl]-6,11-diazatetra-cyclo[7.6.1.0^2,^7^7.0^12,^16] hexadeca-1(16),2,9,12,14-pentaen-6-ium], the “Calcium (Ca2+) assay activity” value at Human 5-HT2C Receptor [1] and on Human 5-HT2A Receptor [3] was “some activity” throughout. Further, the IP1 assay activity entry on Human 5-HT2C Receptor [2], at Human 5-HT2A Receptor [4] and on Human 5-HT2B Receptor was “some activity” each time. Moreover, the cAMP assay activity entry on Human 5-HT2C Receptor [5] is given as “active”; at Human 5-HT2A Receptor [6], “stimulates the 5HT2aR leading to downstream activation of cAMP”; on Human 5-HT7 Receptor, “active”; at Human 5-HT1B Receptor, “active”; on Human 5-HT1A Receptor, “active”. Also, the B-arrestin assay activity result at HTR2A, at HTR1B, at HTR1A and on HTR2C was “some activity” in each case.

The record behind these values is patent publication US12275735B2, “Ergoline analogues” (BECKLEY PSYTECH LIMITED, priority 2021, dated 2025).
